Test results from patent US8134015B2, “Compound inhibiting in vivo phosphorous transport and medicine containing the same” (Kyowa Hakko Kirin Co., Ltd., priority 2003, dated 2012).

Molecular target: T1, rat NaPi-2b (Rattus norvegicus, UniProt Q9JJ09)
T1 construct: expressed in transfected cells; host or cells: Xenopus oocytes injected with cRNA
T1 sequence (Q9JJ09 1-695): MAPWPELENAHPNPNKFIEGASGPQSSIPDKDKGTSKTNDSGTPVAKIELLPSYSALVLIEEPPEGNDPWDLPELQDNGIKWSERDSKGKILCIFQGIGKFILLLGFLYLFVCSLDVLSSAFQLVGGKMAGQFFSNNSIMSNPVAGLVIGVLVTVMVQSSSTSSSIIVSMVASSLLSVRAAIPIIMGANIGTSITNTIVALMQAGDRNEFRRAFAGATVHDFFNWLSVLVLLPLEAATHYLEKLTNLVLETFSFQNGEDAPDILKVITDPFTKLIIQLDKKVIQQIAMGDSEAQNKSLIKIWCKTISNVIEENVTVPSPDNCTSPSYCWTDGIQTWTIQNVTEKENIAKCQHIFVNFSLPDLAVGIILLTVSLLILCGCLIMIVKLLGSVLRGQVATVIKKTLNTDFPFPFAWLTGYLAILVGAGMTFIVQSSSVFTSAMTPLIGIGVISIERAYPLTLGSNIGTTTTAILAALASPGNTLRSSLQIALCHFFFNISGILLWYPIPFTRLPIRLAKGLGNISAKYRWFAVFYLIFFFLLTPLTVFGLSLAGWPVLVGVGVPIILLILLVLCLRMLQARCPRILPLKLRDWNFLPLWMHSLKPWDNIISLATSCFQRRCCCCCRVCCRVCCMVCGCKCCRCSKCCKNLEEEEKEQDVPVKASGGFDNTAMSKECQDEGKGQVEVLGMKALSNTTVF
Test: Sodium-dependent phosphate uptake of Xenopus oocytes which expressed NaPi-2b (32P)
Format: cell-based
Settings: for IC50: Xenopus oocytes expressing rat NaPi-2b, 32P radioactive phosphorus, read-out: IC50 (phosphate uptake inhibitory activity); for inhibition at 300 µM: phosphate uptake, oocytes expressing rat NaPi-2b, determined from inhibition curve
In short: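 Rat small-intestine NaPi-2b cRNA injected into Xenopus oocytes, expressed for 2 days. Sodium-dependent phosphate uptake measured with 32P; % inhibition at 300 and 100 μM taken from the same inhibition curve.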

IC50 | inhibition at 300 µM | SMILES
6.91 µM | – | Cc1cccc(/C=N/NC(=O)c2cc(Br)ccc2NC(=O)c2ccc(CN(CC(C)O)CC(C)O)cc2)c1 (stereo not shown) [Compound 718, 4-{[Bis-(2-hydroxy-propyl)-amino]-methyl}-N-[4-bromo-2-(3-methyl-benzylidene-hydrazinocarbonyl)-phenyl]-benzamide]
0.78 µM | – | CCN(CC)CCN(C)Cc1ccc(C(=O)Nc2ccc(Br)cc2C(=O)N/N=C/c2ccc(C)c(C)c2)cc1 [Compound 280, N-[4-Bromo-2-(3,4-dimethyl-benzylidene-hydrazinocarbonyl)-phenyl]-4-{[(2-diethylamino-ethyl)-methyl-amino]-methyl}-benzamide]
4.32 µM | – | Cc1csc(NC(=O)c2cccc(CN(CCO)CCO)c2)c1C(=O)N/N=C/c1ccc(Cl)c(C(F)(F)F)c1 [Compound 790, 3-{[Bis-(2-hydroxy-ethyl)-amino]-methyl}-N-[3-(4-chloro-3-trifluoromethyl-benzylidene-hydrazinocarbonyl)-4-methyl-thiophen-2-yl]-benzamide]
1.41 µM | – | CCN(CC)CCN(C)Cc1cccc(C(=O)Nc2sc3c(c2C(=O)N/N=C/c2ccc(Cl)c(C(F)(F)F)c2)CCCC3)c1 [Compound 613, N-[3-(4-Chloro-3-trifluoromethyl-benzylidene-hydrazinocarbonyl)-4,5,6,7-tetrahydro-benzo[b]thiophen-2-yl]-3-{[(2-diethylamino-ethyl)-methyl-amino]-methyl}-benzamide]
0.48 µM | – | O=C(Nc1ccccc1C(=O)N/N=C/c1ccc(Cl)c(C(F)(F)F)c1)c1ccccn1 [Compound 508, Pyridin-2-carboxylic acid [2-(4-chloro-3-trifluoromethyl-benzylidene-hydrazinocarbonyl)-phenyl]-amide]
3.91 µM | – | CCN(CC)CCNCc1ccc(C(=O)Nc2ccc(Br)cc2C(=O)N/N=C/c2cccc(OC)c2)cc1 [Compound 299, N-[4-Bromo-2-(3-methoxy-benzylidene-hydrazinocarbonyl)-phenyl]-4-[(2-diethylamino-ethylamino)-methyl]-benzamide]
– | 38.2% | CCN(CC)CCN(C)Cc1cccc(C(=O)Nc2c(C)csc2C(=O)N/N=C/c2ccc(OC)cc2)c1 [Compound 530, 3-{[(2-Diethylamino-ethyl)-methyl-amino]-methyl}-N-[2-(4-methoxy-benzylidene-hydrazinocarbonyl)-4-methyl-thiophen-3-yl]-benzamide]
0.93 µM | – | Cc1ccc(/C=N/NC(=O)c2cc(Br)ccc2NC(=O)c2cccs2)cc1 [Compound 160, Thiophene-2-carboxylic acid [4-bromo-2-(4-methyl-benzylidene-hydrazinocarbonyl)-phenyl]-amide]
2.54 µM | – | Cc1ccc(/C=N/NC(=O)c2cc(Cl)ccc2NC(=O)c2cccc(CN3CCC(N4CCCCC4)CC3)c2)cc1 [Compound 371, 3-[1,4′]Bipiperidinyl-1′-ylmethyl-N-[4-chloro-2-(4-methyl-benzylidene-hydrazinocarbonyl)-phenyl]-benzamide]
– | 35.7% | COc1ccc(/C=N/NC(=O)c2scc(C)c2NC(=O)c2cccc(CN3CCC(N4CCCCC4)CC3)c2)cc1 [Compound 531, 3-[1,4′]Bipiperidinyl-1′-ylmethyl-N-[2-(4-methoxy-benzylidene-hydrazinocarbonyl)-4-methyl-thiophen-3-yl]-benzamide]
– | 38.9% | Cc1ccc(/C=N/NC(=O)c2scc(C)c2NC(=O)c2cccc(CSCCCO)c2)cc1C [Compound 525, N-[2-(3,4-Dimethyl-benzylidene-hydrazinocarbonyl)-4-methyl-thiophen-3-yl]-3-(3-hydroxy-propylsulfanylmethyl)-benzamide]
8.15 µM | – | COc1ccc(/C=N/NC(=O)c2cc(N3CCCCC3)ccc2NC(=O)c2cccc(CNCCN(CCO)CCO)c2)cc1 [Compound 915, 3-({2-[Bis-(2-hydroxy-ethyl)-amino]-ethylamino}-methyl)-N-[2-(4-methoxy-benzylidene-hydrazinocarbonyl)-4-piperidin-1-yl-phenyl]-benzamide]
< 3 µM | – | CCc1ccc(C(=O)Nc2ccc(Br)cc2C(=O)N/N=C/c2cccc(C)c2)cc1 [Compound 180, N-[4-Bromo-2-(3-methyl-benzylidene-hydrazinocarbonyl)-phenyl]-4-ethyl-benzamide]
5.58 µM | – | CCN(CC)CCNCc1cccc(C(=O)Nc2sc3c(c2C(=O)N/N=C/c2cccc(F)c2)CCC3)c1 [Compound 812, 3-[(2-Diethylamino-ethylamino)-methyl]-N-[3-(3-fluoro-benzylidene-hydrazinocarbonyl)-5,6-dihydro-4H-cyclopenta[b]thiophen-2-yl]-benzamide]
< 3 µM | – | COc1ccc(/C=N/NC(=O)c2cc3ccccc3cc2NC(=O)c2cccc(CN3CCN(CCO)CC3)c2)cc1 [Compound 973, 3-[4-(2-Hydroxy-ethyl)-piperazin-1-ylmethyl]-N-[3-(4-methoxy-benzylidene-hydrazinocarbonyl)-naphthalen-2-yl]-benzamide]
4.46 µM | – | O=C(Nc1ccc(Br)cc1C(=O)N/N=C/C=C/c1ccccc1)c1cccnc1 [Compound 346, N-[4-Bromo-2-(3-phenyl-allylidene-hydrazinocarbonyl)-phenyl]-nicotinamide]
5.71 µM | – | CCN(CC)CCN(C)Cc1cccc(C(=O)Nc2ccc(OCCOC)cc2C(=O)N/N=C/c2cccc(F)c2)c1 [Compound 1025, 3-{[(2-Diethylamino-ethyl)-methyl-amino]-methyl}-N-[2-(3-fluoro-benzylidene-hydrazinocarbonyl)-4-(2-methoxy-ethoxy)-phenyl]-benzamide]
15.3 µM | – | CCN(CC)CCN(C)Cc1cccc(C(=O)Nc2sccc2C(=O)N/N=C/c2ccc(OC)cc2)c1 [Compound 669, 3-{[(2-Diethylamino-ethyl)-methyl-amino]-methyl}-N-[3-(4-methoxy-benzylidene-hydrazinocarbonyl)-thiophen-2-yl]-benzamide]
1.83 µM | – | CCN(CC)CCN(CCN(CC)CC)Cc1cccc(C(=O)Nc2ccc(N3CCCCC3)cc2C(=O)N/N=C/c2ccc(C)cc2)c1 [Compound 906, 3-{[Bis-(2-diethylamino-ethyl)-amino]-methyl}-N-[2-(4-methyl-benzylidene-hydrazinocarbonyl)-4-piperidin-1-yl-phenyl]-benzamide]
– | 30.6% | Cc1cccc(/C=N/NC(=O)c2ccccc2NC(=O)c2ccccc2F)c1 [Compound 238, 2-Fluoro-N-[2-(3-methyl-benzylidene-hydrazinocarbonyl)-phenyl]-benzamide]
0.97 µM | – | CCN(CC)CCN(C)Cc1cccc(C(=O)Nc2ccc(Cl)cc2C(=O)N/N=C/c2cccc(F)c2)c1 [Compound 379, N-[4-Chloro-2-(3-fluoro-benzylidene-hydrazinocarbonyl)-phenyl]-3-{[(2-diethylamino-ethyl)-methyl-amino]-methyl}-benzamide]
19.2 µM | – | CCN(CC)CC(O)COc1ccc(NC(=O)c2cccc(CN(CC(C)O)CC(C)O)c2)c(C(=O)N/N=C/c2ccc(Cl)c(C(F)(F)F)c2)c1 (stereo not shown) [Compound 952, 3-{[Bis-(2-hydroxy-propyl)-amino]-methyl}-N-[2-(4-chloro-3-trifluoromethyl-benzylidene-hydrazinocarbonyl)-4-(3-diethylamino-2-hydroxy-propoxy)-phenyl]-benzamide]
5.59 µM | – | CCN(CC)CCNCc1ccc(C(=O)Nc2ccc(Br)cc2C(=O)N/N=C/c2ccc(C)cc2)cc1 [Compound 293, N-[4-Bromo-2-(4-methyl-benzylidene-hydrazinocarbonyl)-phenyl]-4-[(2-diethylamino-ethylamino)-methyl]-benzamide]
19.5 µM | – | COc1ccc(C(=O)Nc2ccccc2C(=O)N/N=C/c2cccc(O)c2)cc1 [Compound 50, N-[2-(3-Hydroxy-benzylidene-hydrazinocarbonyl)-phenyl]-4-methoxy-benzamide]
23.1 µM | – | Cc1ccc(/C=N/NC(=O)c2cc(Cl)ccc2NC(=O)c2ccncc2)cc1 [Compound 192, N-[4-Chloro-2-(4-methyl-benzylidene-hydrazinocarbonyl)-phenyl]-isonicotinamide]
8.16 µM | – | COc1ccc(C(=O)Nc2ccccc2C(=O)N/N=C/c2ccc(O)cc2)cc1OC [Compound 19, N-[2-(4-Hydroxy-benzylidene-hydrazinocarbonyl)-phenyl]-3,4-dimethoxy-benzamide]
– | 67.8% | Cc1ccc(/C=N/NC(=O)c2cc(OCC(O)CN3CCOCC3)ccc2NC(=O)c2cccc(CN(CC(C)O)CC(C)O)c2)cc1C (stereo not shown) [Compound 953, 3-{[Bis-(2-hydroxy-propyl)-amino]-methyl}-N-[2-(3,4-dimethyl-benzylidene-hydrazinocarbonyl)-4-(2-hydroxy-3-morpholin-4-yl-propoxy)-phenyl]-benzamide]
2.43 µM | – | COc1ccc(C(=O)Nc2ccccc2C(=O)N/N=C/c2ccc(Cl)c(C(F)(F)F)c2)cc1OC [Compound 41, N-[2-(4-Chloro-3-trifluoromethyl-benzylidene-hydrazinocarbonyl)-phenyl]-3,4-dimethoxy-benzamide]
